Assay results: the NIST ThermoML archive (doi:10.1016/j.jct.2018.10.026)
Numbers after ± are expanded uncertainties.

Conditions: 101.33 kPa, Liquid; for mass density: Vibrating tube method; for viscosity: Concentric cylinders viscometry

SMILES	mass density (293.15 K)	mass density (298.15 K)	viscosity (303.15 K)	mass density (303.15 K)	viscosity (308.15 K)	mass density (308.15 K)	viscosity (313.15 K)	mass density (313.15 K)	viscosity (318.15 K)	mass density (318.15 K)	viscosity (323.15 K)	mass density (323.15 K)	viscosity (293.15 K)	viscosity (298.15 K)
C[N+](C)(C)CCO.[O-]c1cccc2cccnc12 [choline 8-quinolinolate]	1162.71 ± 6.5 kg/m3	1159.75 ± 6.5 kg/m3	4870960 ± 1.2e+06 mPa·s	1156.73 ± 6.4 kg/m3	2363490 ± 570000 mPa·s	1153.91 ± 6.4 kg/m3	1331720 ± 310000 mPa·s	1150.97 ± 6.4 kg/m3	755840 ± 180000 mPa·s	1147.91 ± 6.4 kg/m3	338330 ± 77000 mPa·s	1144.78 ± 6.4 kg/m3		
C[C@H](O)C(=O)[O-].C[N+](C)(C)CCO	1137.33 ± 11 kg/m3	1133.94 ± 11 kg/m3	2903 ± 600 mPa·s	1130.52 ± 11 kg/m3	2207 ± 460 mPa·s	1127.05 ± 11 kg/m3	1728 ± 360 mPa·s	1123.55 ± 11 kg/m3	1368 ± 280 mPa·s	1120.11 ± 11 kg/m3	1110 ± 230 mPa·s	1116.7 ± 11 kg/m3	5513 ± 1200 mPa·s	3929 ± 820 mPa·s
